Measurements from patent publication US6921775B2, “Methods for modulating brain damage” (Children's Medical Center Corporation, priority 2001, dated 2005).

Experiments:
[1] = test system: oligodendrocyte precursor cells; assay: 45Ca2+ uptake in oligodendrocyte precursor cells; format: cell-based, rat; conditions: NBQX 100 μM, topiramate 30 μM, uptake after 10 minutes; for OGD-induced Ca2+ accumulation (45Ca2+ uptake): OGD for 2 hr; for kainate-evoked Ca2+ entry (45Ca2+ uptake): kainate 300 μM
Method: Primary oligodendrocyte precursor cells were isolated from mixed glial cultures of the forebrains of newborn Sprague-Dawley rats using a selective detachment procedure as described in detail elsewhere (McCarthy and de Vellis, 1980; Back et al., 1998), and further purified by differential adhesion (Back et al., 1998). Precursor cells were maintained in a chemically-defined medium (CDM) supplemented with recombinant human platelet derived growth factor-AA (PDGF, 10 ng/ml) and basic fibroblast growth factor (bFGF, 10 ng/ml). The CDM was Dulbecco Modified Eagle's Medium (DMEM) containing D-glucose (25 mM), L-glutamine (4 mM), sodium pyruvate (1 mM), human apo-transferrin (50 μg/ml), bovine pancreatic insulin (5 μg/ml), sodium selenium (30 nM), hydrocortisone (10 nM), D-biotin (10 nM), and bovine serum albumin (BSA, 1 mg/ml). All chemicals were from Sigma. Precursor cells were maintained in the presence of growth factors (PDGF+bFGF) by refeeding with fresh medium every 48 hr for 7 days, to promote cell proliferation and prevent differentiation (Bogler et al., 1990). Experiments were performed with cultures maintained in CDM without the supplemental growth factors. These cultures were routinely characterized by immunochemical detection of cell-specific markers as described before (Back et al., 1998). Cultures at the beginning of experiments usually consisted of approximately 90% A2B5^+ oligodendrocyte precursors and less than 5% glial fibrillary acidic protein (GFAP)-positive astrocytes. Cells were plated on poly-DL-ornithine-coated 24-well plates for cell viability assays and on coated glass coverslips for immunocytochemistry, proliferation studies, and lineage analysis. To assay Ca^2+ influx, cultures were incubated with ^45CaCl2 (8 μCi/ml) at room temperature for 10 min, then washed with Hank's balanced salts-solution (HBSS) and lysed with 1% Triton-X 100 in HBSS. Radioactivity in the whole lysate was counted by liquid scintillation. To gain further insight into the mechanisms of the protective effect of topiramate and NBQX, kainate- or OGD-evoked calcium accumulation in oligodendrocyte precursor cells was investigated. Cultures were either not treated or given NBQX (100 μM) or topiramate (30 μM), together with ^45CaCl2 (8 μCi/ml), before adding kainate (300 μM) or after exposure to OGD for 2 hr. ^45Ca^2+ uptake was measured after 10 minutes.

[2] = test system: O4+ OLs in subcortical white matter; assay: OL proliferation and maturation in vivo in pups without insult; set-up: species or system rat; conditions: 30 mg/kg topiramate or 20 mg/kg NBQX; for number of proliferating (BrdU labeled, O4+) OLs in subcortical white matter: 4 injections every 12 hours at P7 and P8, no insult, vs vehicle; for maturation of white matter (O4, O1, MBP immunohistostaining), qualitative: 4 injections every 12 hours at P7 and P8, at P9 or P11
Method: Litters of male Long Evans rat pups (Charles River Laboratories, Wilmington, Mass.) were raised with dams in a temperature-controlled environment with 12 hour light-dark cycles. Pups underwent carotid ligation and hypoxia at post-natal-day (P)7. They were recovered on a thermal blanket at 33-34° C. (baseline temperature for P7 rats) and returned to their dam for 48-96 hours prior to sacrifice. Treated pups were given intra-peritoneal (i.p.) injections of 0.1 cc solutions of topiramate, NBQX or vehicle every 12 hours for 48 hours at P7 and P8 for treatment, control and normal development studies.
Oligodendrocyte maturation and myelin expression were evaluated in animals treated for 48 hours with topiramate as compared with normal development. The sub-cortical white matter was evaluated by immunocytochemistry with antibodies to O4, O1 and myelin basic protein (MBP), for changes in pre-myelinating OL populations and in the pattern of MBP expression in rats sacrificed at P9, acutely after treatment. To evaluate for any permanent effect on mature myelination, the quantity of MBP at P28 in animals treated for 48 hours at P7/8 with topiramate was compared with untreated littermates by Western blot.
Histological and immunocytochemical (ICC) analysis was carried out on serial 20-30 μm coronal sections, cut by either cryostat (for pre-mounted sections) or freezing microtome (floating sections) from the anterior extent of the lateral ventricles through the posterior extent of the dorsal hippocampus. Representative sections from all experimental animals were stained with hematoxylin and eosin (HE) for routine evaluation.
For ICC evaluation, adjacent mounted sections were incubated in 5-10% normal goat serum for one hour to block non-specific binding and concurrently permeabilized in 0.1% Triton X-100. Slides were incubated with MBP antibody (SMA-99, Sternberger Monoclonals, Baltimore, Md.) at a dilution of 1:800 in PBS with 1% normal goat serum plus 0.1% Triton overnight at 4° C., followed by Oregon Green (Molecular Probes, Eugene, Oreg.) anti-mouse IgG secondary antibody for one hour at room temperature. […]
Litters were divided and pups received 4 injections, one every 12 hours for 48 hours at P7 and P8, of either vehicle (n=6), 30 mg/kg topiramate (n=7) or 20 mg/kg NBQX (n=7). […] At the completion of 48 hours the animals were sacrificed and the number of BrdU labeled, O4+ OLs present in the subcortical white matter of coronal sections (n=20/group) were counted (FIG. 5B). […] Furthermore, qualitative analysis of white matter by immunohistostaining for OL stage-specific markers O4, O1 and MBP was carried out in serial sections of the same animals evaluated above.

SMILES | OGD-induced Ca2+ accumulation (45Ca2+ uptake) [1] | kainate-evoked Ca2+ entry (45Ca2+ uptake) [1] | number of proliferating (BrdU labeled, O4+) OLs in subcortical white matter [2] | maturation of white matter (O4, O1, MBP immunohistostaining), qualitative [2]
CC1(C)O[C@@H]2[C@@H](CO[C@@]3(COS(N)(=O)=O)OC(C)(C)O[C@@H]23)O1 [topiramate] | fully prevented | partially prevented | No difference in the number of proliferating OLs was detected | No qualitative difference in maturation was seen
NS(=O)(=O)c1cccc2c1c([N+](=O)[O-])cc1nc(O)c(O)nc12 [NBQX, 2,3-Dioxo-6-nitro-1,2,3,4-tetrahydrobenzo[f]quinoxaline-7-sulphonamide] | fully prevented | completely blocked | No difference in the number of proliferating OLs was detected | No qualitative difference in maturation was seen
